pIC50: −log10 of the molar value.
The compounds below were run against T1, human MGL from HeLa cells (Homo sapiens, UniProt Q99685) (assay: In vitro MGL activity assay: [glycerol-1,3-3H]-oleyl glycerol cleavage by MGL from HeLa cells). Details: 300 nM [Glycerol-1,3-3H]-oleyl glycerol, one hour.
T1 construct: combining endogenously expressed MGL from HeLa cells with test compounds; endogenous in cells; host or cells: HeLa cells / cell homogenates
T1 sequence (Q99685 1-303): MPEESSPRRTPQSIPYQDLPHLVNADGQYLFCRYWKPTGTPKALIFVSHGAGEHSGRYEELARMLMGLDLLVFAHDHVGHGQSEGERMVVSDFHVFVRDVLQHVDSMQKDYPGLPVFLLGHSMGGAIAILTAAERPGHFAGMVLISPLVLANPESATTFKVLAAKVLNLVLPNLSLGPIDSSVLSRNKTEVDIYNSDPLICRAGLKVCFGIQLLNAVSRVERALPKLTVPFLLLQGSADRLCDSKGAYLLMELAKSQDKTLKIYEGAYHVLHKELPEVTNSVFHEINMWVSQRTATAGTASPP
Type: biochemical
Text: MGL is the predominant hydrolase in HeLa cells/cell homogenates.

SMILES | pIC50
COc1cc(-c2c3c(nn2C)[C@H](C)N(C(=O)c2ccc4ncccc4c2)CC3)ccn1 [Example 526, [(7S)-3-(2-Methoxy-4-pyridyl)-2,7-dimethyl-5,7-dihydro-4H-pyrazolo[3,4-c]pyridin-6-yl]-(6-quinolyl)methanone] | 6.30
C[C@H]1c2nn(C)c(-c3cc(F)c(F)c(F)c3)c2CCN1C(=O)c1nccc2cnn(C)c12 [Example 433, [(7S)-2,7-Dimethyl-3-(3,4,5-trifluorophenyl)-5,7-dihydro-4H-pyrazolo[3,4-c]pyridin-6-yl]-(1-methylpyrazolo[3,4-c]pyridin-7-yl)methanone] | 6.98
C[C@H]1c2nn(C)c(-c3cc(F)c(F)c(F)c3)c2CCN1C(=O)c1cnc2ccccc2n1 [Example 477, [(7S)-2,7-Dimethyl-3-(3,4,5-trifluorophenyl)-5,7-dihydro-4H-pyrazolo[3,4-c]pyridin-6-yl]-quinoxalin-2-yl-methanone] | 6.90
Cc1[nH]c2ncccc2c1C(=O)N1CCc2c(nn(C)c2-c2cc(F)c(F)c(F)c2)[C@@H]1C [Example 375, [(7S)-2,7-Dimethyl-3-(3,4,5-trifluorophenyl)-5,7-dihydro-4H-pyrazolo[3,4-c]pyridin-6-yl]-(2-methyl-1H-pyrrolo[2,3-b]pyridin-3-yl)methanone] | 7.52
C[C@H]1c2nn(C)c(-c3cc(F)c(F)c(F)c3)c2CCN1C(=O)c1cccc2nncn12 [Example 438, [(7S)-2,7-Dimethyl-3-(3,4,5-trifluorophenyl)-5,7-dihydro-4H-pyrazolo[3,4-c]pyridin-6-yl]-([1,2,4]triazolo[4,3-a]pyridin-5-yl)methanone] | 6.29
C[C@H]1c2nn(C)c(-c3cc(F)c(F)c(F)c3)c2CCN1C(=O)c1cncc2ncccc12 [Example 489] | 7.52
C[C@H]1c2nn(C)c(-c3cc(F)c(F)c(F)c3)c2CCN1C(=O)c1ccnc2ncccc12 [Example 491, [(7S)-2,7-Dimethyl-3-(3,4,5-trifluorophenyl)-5,7-dihydro-4H-pyrazolo[3,4-c]pyridin-6-yl]-(1,8-naphthyridin-4-yl)methanone] | 6.85
C[C@H]1c2nn(C)c(-c3cc(F)c(F)c(F)c3)c2CCN1C(=O)c1cnn(C)c1C1CCC1 [Example 333, (5-Cyclobutyl-1-methyl-pyrazol-4-yl)-[(7S)-2,7-dimethyl-3-(3,4,5-trifluorophenyl)-5,7-dihydro-4H-pyrazolo[3,4-c]pyridin-6-yl]methanone] | 7.60
Cc1ccnc2ccc(C(=O)N3CCc4c(nn(C)c4-c4cc(F)c(F)c(F)c4)[C@@H]3C)cc12 [Example 549, [(7S)-2,7-Dimethyl-3-(3,4,5-trifluorophenyl)-5,7-dihydro-4H-pyrazolo[3,4-c]pyridin-6-yl]-(4-methyl-6-quinolyl)methanone] | 8.70
C[C@H]1c2nn(C)c(-c3cc(F)c(F)c(F)c3)c2CCN1C(=O)c1cnc(-c2ccccn2)n1C [Example 602, [(7S)-2,7-Dimethyl-3-(3,4,5-trifluorophenyl)-5,7-dihydro-4H-pyrazolo[3,4-c]pyridin-6-yl]-[3-methyl-2-(2-pyridyl)imidazol-4-yl]methanone] | 6.34
CC1c2nn(C34CC(C3)C4)c(-c3ccccc3)c2CCN1C(=O)c1cnn(C)c1C1CC1 (single isomer, unassigned) [Example 342, (S*)-(2-(Bicyclo[1.1.1]pentan-1-yl)-7-methyl-3-phenyl-2,4,5,7-tetrahydro-6H-pyrazolo[3,4-c]pyridin-6-yl)(5-cyclopropyl-1-methyl-1H-pyrazol-4-yl)methanone] | 6.59
C[C@H]1c2nn(C)c(-c3cc(F)c(F)c(F)c3)c2CCN1C(=O)c1ccnc2c1CCOC2 [Example 565, 6,8-Dihydro-5H-pyrano[3,4-b]pyridin-4-yl-[(7S)-2,7-dimethyl-3-(3,4,5-trifluorophenyl)-5,7-dihydro-4H-pyrazolo[3,4-c]pyridin-6-yl]methanone] | 6.96
C[C@H]1c2nn(C)c(-c3cc(F)c(F)c(F)c3)c2CCN1C(=O)c1ccc2nc(O)ccc2c1 [Example 517, [(7S)-2,7-Dimethyl-3-(3,4,5-trifluorophenyl)-5,7-dihydro-4H-pyrazolo[3,4-c]pyridin-6-yl]-(2-hydroxy-6-quinolyl)methanone] | 7.09
C[C@H]1c2nn(C)c(-c3ccc(C(F)(F)F)cc3)c2CCN1C(=O)c1ccc2ncccc2c1 [Example 494, [(7S)-2,7-Dimethyl-3-[4-(trifluoromethyl)phenyl]-5,7-dihydro-4H-pyrazolo[3,4-c]pyridin-6-yl]-(6-quinolyl)methanone] | 7.26
COc1cccc2c(C(=O)N3CCc4c(nn(C)c4-c4cc(F)c(F)c(F)c4)[C@@H]3C)ccnc12 [Example 550, [(7S)-2,7-Dimethyl-3-(3,4,5-trifluorophenyl)-5,7-dihydro-4H-pyrazolo[3,4-c]pyridin-6-yl]-(8-methoxy-4-quinolyl)methanone] | 7.32

Same assay, conditions: 300 nM [Glycerol-1,3-3H]-oleyl glycerol, one hour incubation

SMILES | pIC50
COc1ccc(C(=O)N2CCc3c(nn(C)c3-c3cc(F)c(F)c(F)c3)[C@@H]2C)c(F)c1 [Example 265, [(7S)-2,7-Dimethyl-3-(3,4,5-trifluorophenyl)-5,7-dihydro-4H-pyrazolo[3,4-c]pyridin-6-yl]-(2-fluoro-4-methoxy-phenyl)methanone] | 7.46
Cc1nc2cccc(Cl)n2c1C(=O)N1CCc2c(nn(C)c2-c2ccccc2)C1 [Example 82, (5-Chloro-2-methylimidazo[1,2-a]pyridin-3-yl)(2-methyl-3-phenyl-2,4,5,7-tetrahydro-6H-pyrazolo[3,4-c]pyridin-6-yl)methanone] | 5.32
C[C@H]1c2nn(C)c(-c3cccc(Cl)c3)c2CCN1C(=O)c1ccc2nccnc2c1 (single isomer, unassigned) [Example 134] | 8.37
C[C@H]1c2nn(C)c(-c3cc(F)cc(F)c3)c2CCN1C(=O)c1ccc(F)c(OCCF)c1 [Example 144, (S)-(3-(3,5-Difluorophenyl)-2,7-dimethyl-2,4,5,7-tetrahydro-6H-pyrazolo[3,4-c]pyridin-6-yl)(4-fluoro-3-(2-fluoroethoxy)phenyl)methanone] | 7.26
C[C@H]1c2nn(C)c(-c3cc(F)c(F)c(F)c3)c2CCN1C(=O)c1cn(C2CC2)nc1C(F)(F)F [Example 332, [1-Cyclopropyl-3-(trifluoromethyl)pyrazol-4-yl]-[(7S)-2,7-dimethyl-3-(3,4,5-trifluorophenyl)-5,7-dihydro-4H-pyrazolo[3,4-c]pyridin-6-yl]methanone] | 6.84
C[C@H]1c2nn(C)c(-c3cc(F)c(F)c(F)c3)c2CCN1C(=O)c1ccc2ncccc2c1 [Example 234, (S)-(2,7-Dimethyl-3-(3,4,5-trifluorophenyl)-2,4,5,7-tetrahydro-6H-pyrazolo[3,4-c]pyridin-6-yl)(quinolin-6-yl)methanone] | 8.33
COc1ccc(-n2nccn2)c(C(=O)N2CCc3c(nn(C)c3-c3cc(F)c(F)c(F)c3)[C@@H]2C)c1 [Example 289, [(7S)-2,7-Dimethyl-3-(3,4,5-trifluorophenyl)-5,7-dihydro-4H-pyrazolo[3,4-c]pyridin-6-yl]-[5-methoxy-2-(triazol-2-yl)phenyl]methanone] | 7.70
C[C@H]1c2nn(C)c(-c3cc(F)c(F)c(F)c3)c2CCN1C(=O)c1cccc(-c2cn[nH]c2)c1 [Example 272, [(7S)-2,7-Dimethyl-3-(3,4,5-trifluorophenyl)-5,7-dihydro-4H-pyrazolo[3,4-c]pyridin-6-yl]-[3-(1H-pyrazol-4-yl)phenyl]methanone] | 7.83
Cn1nc2c(c1-c1ccccc1)CCN(C(=O)c1sc3ccccc3c1Cl)C2 [Example 41, (3-Chlorobenzo[b]thiophen-2-yl)(2-methyl-3-phenyl-2,4,5,7-tetrahydro-6H-pyrazolo[3,4-c]pyridin-6-yl)methanone] | 7.19
Cn1nc2c(c1C1CC1)CCN(C(=O)c1cccc(Cl)c1Cl)C2 [Example 2, (3-Cyclopropyl-2-methyl-2,4,5,7-tetrahydro-6H-pyrazolo[3,4-c]pyridin-6-yl)(2,3-dichlorophenyl)methanone] | 5.34
CC1c2nn(C)c(-c3cc(F)cc(F)c3)c2CCN1C(=O)c1ccc2nccc(Br)c2c1 (stereo not drawn) [Example 162, (4-Bromoquinolin-6-yl)(3-(3,5-difluorophenyl)-2,7-dimethyl-2,4,5,7-tetrahydro-6H-pyrazolo[3,4-c]pyridin-6-yl)methanone] | 7.95
CC(C)Oc1cncc(C(=O)N2CCc3c(nn(C)c3-c3cccc(Cl)c3)[C@@H]2C)c1 [Example 122, (S)-(3-(3-Chlorophenyl)-2,7-dimethyl-2,4,5,7-tetrahydro-6H-pyrazolo[3,4-c]pyridin-6-yl)(5-isopropoxypyridin-3-yl)methanone] | 7.11
C[C@H]1c2nn(C)c(-c3cc(F)cc(Cl)c3)c2CCN1C(=O)c1ccc2nccnc2c1 [Example 181, (S)-(3-(3-Chloro-5-fluorophenyl)-2,7-dimethyl-2,4,5,7-tetrahydro-6H-pyrazolo[3,4-c]pyridin-6-yl)(quinoxalin-6-yl)methanone] | 8.20
Cn1nc2c(c1-c1ccccc1)CCN(C(=O)c1nc3ccccc3o1)C2 [Example 57, Benzo[d]oxazol-2-yl(2-methyl-3-phenyl-2,4,5,7-tetrahydro-6H-pyrazolo[3,4-c]pyridin-6-yl)methanone] | 5.77
Cc1c(F)cc(-c2c3c(nn2C)[C@H](C)N(C(=O)c2ccc4nccnc4c2)CC3)cc1F [Example 190, (S)-(3-(3,5-Difluoro-4-methylphenyl)-2,7-dimethyl-2,4,5,7-tetrahydro-6H-pyrazolo[3,4-c]pyridin-6-yl)(quinoxalin-6-yl)methanone] | 6.88
